Measured values taken from patent US5217960A, “Erythromycin derivatives” (priority 1991, dated 1993).
In brackets after ≈: the same amount, converted by molar mass. Like-named read-outs stand apart in the source and are kept apart here.

Key:
Type in all cases: cell-based
ESCHERICHIA COLI H560 = experiment: In vitro antibacterial activity, agar dilution MIC; details: 24 h
[1] = test system: STAPHYLOCOCCUS AUREUS ATCC 6538P; experiment: In vitro antibacterial activity, agar dilution MIC; details: ATCC6538P, 24 h
[2] = test system: STREPTOCOCCUS BOVIS A5169; experiment: In vitro antibacterial activity, agar dilution MIC; details: 24 h
[3] = test system: STAPHYLOCOCCUS AUREUS CMX 553; experiment: In vitro antibacterial activity, agar dilution MIC; details: 24 h
PSEUDOMONAS CEPACIA 296I = experiment: In vitro antibacterial activity, agar dilution MIC; details: Burkholderia cepacia; P. cepacia 296I; BHI agar, 35-37° C., 20 to 24 hours; read-out: MIC
[4] = test system: STAPHYLOCOCCUS EPIDERMIDIS 3519; experiment: microbe, parasite or virus in culture; details: 24 h
[5] = test system: PSEUDOMONAS AERUGINOSA BMH10; experiment: In vitro antibacterial activity, agar dilution MIC
[6] = test system: STAPHYLOCOCCUS AUREUS A5177; experiment: In vitro antibacterial activity, agar dilution MIC; details: S. aureus A5177, BHI agar, 35-37° C., 20 to 24 hours, read-out: MIC
ESCHERICHIA COLI KNK 437 = experiment: microbe, parasite or virus in culture; details: E. coli KNK 437, BHI agar, 35-37° C., 20 to 24 hours
[7] = test system: STREPTOCOCCUS PYOGENES 930 CONST; experiment: In vitro antibacterial activity, agar dilution MIC; details: S. pyogenes 930 CONST, BHI agar, 35-37° C., 20 to 24 hours, read-out: MIC
[8] = test system: KLEBSIELLA PNEUMONIAE ATCC 8045; experiment: In vitro antibacterial activity, agar dilution MIC; details: ATCC8045, K. pneumoniae ATCC 8045, BHI agar, 35-37° C., 20 to 24 hours, read-out: MIC
[9] = test system: STAPHYLOCOCCUS AUREUS NCTC 10649; experiment: In vitro antibacterial activity, agar dilution MIC
[10] = test system: STREPTOCOCCUS PYOGENES 2548 INDUC; experiment: In vitro antibacterial activity, agar dilution MIC; details: 24 h
STR[…] EES61 = experiment: In vitro antibacterial activity, agar dilution MIC; details: Streptococcus pyogenes, 24 h
Method: (§1) Representative compounds of the present invention were assayed in vitro for antibacterial activity as follows: Twelve petri dishes containing successive aqueous dilutions of the test compound mixed with 10 ml of sterilized Brain Heart Infusion (BHI) agar (Difco 0418-01-5) were prepared. Each plate was inoculated with 1:100 (or 1:10 for slow-growing strains, such as Micrococcus and Streptococcus) dilutions of up to 32 different microorganisms, using a Steers replicator block. The inoculated plates were incubated at 35°-37° C. for 20 to 24 hours. In addition, a control plate, using BHI agar containing no test compound, was prepared and incubated at the beginning and end of each test.
(§2) An additional plate containing a compound having known susceptibility patterns for the organisms being tested and belonging to the same antibiotic class as the test compound was also prepared and incubated as a further control, as well as to provide test-to-test comparability. Erythromycin A was used for this purpose.
(§3) After incubation, each disk was read. The minimum inhibitory concentration (MIC) was defined as the lowest concentration of drug yielding no growth, a slight haze, or sparsely isolated colonies on the inoculum spot as compared to the growth control.

STR[…] 508 = experiment: In vitro antibacterial activity, agar dilution MIC; details: Streptococcus agalactiae, 24 h
Method: as §1, §2, §3

[11] = test system: ENTEROBACTER AEROGENES ATCC 13048; experiment: In vitro antibacterial activity, agar dilution MIC; details: Klebsiella aerogenes, ATCC13048; E. aerogenes ATCC 13048; BHI agar, 35-37° C., 20 to 24 hours; read-out: MIC
STAPHYLOCOCCUS AUREUS 45 = experiment: In vitro antibacterial activity, agar dilution MIC
[12] = test system: STAPHYLOCOCCUS AUREUS 1775; experiment: In vitro antibacterial activity, agar dilution MIC; details: S. aureus 1775, BHI agar, 35-37° C., 20 to 24 hours, read-out: MIC
[13] = test system: PSEUDOMONAS AERUGINOSA K799/WT; experiment: In vitro antibacterial activity, agar dilution MIC; details: P. aeruginosa K799/WT, BHI agar, 35-37° C., 20 to 24 hours
[14] = test system: ACINETOBACTER CALCOACETICUS CMX 669; experiment: In vitro antibacterial activity, agar dilution MIC; details: A. calcoaceticus CMX 669, BHI agar, 35-37° C., 20 to 24 hours
[15] = test system: PSEUDOMONAS AERUGINOSA A5007; experiment: In vitro antibacterial activity, agar dilution MIC; details: P. aeruginosa A5007, BHI agar, 35-37° C., 20 to 24 hours
ESCHERICHIA COLI JUHL = experiment: microbe, parasite or virus in culture; details: E. coli JUHL, BHI agar, 35-37° C., 20 to 24 hours, read-out: MIC
[16] = test system: PROVIDENCIA STUARTII CMX 640; experiment: microbe, parasite or virus in culture; details: P. stuartii CMX 640, BHI agar, 35-37° C., 20 to 24 hours
ESCHERICHIA COLI DC-2 = experiment: In vitro antibacterial activity, agar dilution MIC; details: E. coli DC-2, BHI agar, 35-37° C., 20 to 24 hours, read-out: MIC
M[…] ATCC 9341 = experiment: In vitro antibacterial activity, agar dilution MIC; details: Micrococcus luteus, ATCC9341, 24 h
Method: as §1, §2
(§4) After incubation, each disk was read. The minimum inhibitory concentration (MIC) was defined as the lowest concentration of drug yielding no growth, a slight haze, or sparsely isolated colonies on the inoculum spot as compared to the growth control. The results of this assay, shown below in Tables 1 and 2, support the conclusion that the compounds of the invention are effective antibacterial agents.

[17] = test system: PSEUDOMONAS AERUGINOSA K799/61; experiment: In vitro antibacterial activity, agar dilution MIC; details: P. aeruginosa K799/61, BHI agar, 35-37° C., 20 to 24 hours, read-out: MIC
Method: as §1, §2, §4

M[…] ATCC 4698 = experiment: In vitro antibacterial activity, agar dilution MIC; details: Micrococcus luteus, ATCC4698, 24 h
Method: as §1, §2, §4

EN[…] ATCC 8043 = experiment: In vitro antibacterial activity, agar dilution MIC; details: Enterococcus faecium, ATCC8043, 24 h
Method: as §1, §2, §4

[18] = test system: STAPHYLOCOCCUS AUREUS 642A; experiment: In vitro antibacterial activity, agar dilution MIC
ESCHERICHIA COLI SS = experiment: In vitro antibacterial activity, agar dilution MIC

| Structure (SMILES) | MIC (ESCHERICHIA COLI H560) | MIC [1] | MIC [2] | MIC (PSEUDOMONAS CEPACIA 296I) | MIC [4] | MIC [6] | MIC (ESCHERICHIA COLI KNK 437) | MIC [7] | MIC [8] | MIC [10] | MIC [11] | MIC [12] | MIC [13] | MIC [14] | MIC [15] | MIC (ESCHERICHIA COLI JUHL) | MIC [16] | MIC (ESCHERICHIA COLI DC-2) | MIC (M[…] ATCC 9341) | MIC [17] | further results |
| --- | --- | --- | --- | --- | --- | --- | --- | --- | --- | --- | --- | --- | --- | --- | --- | --- | --- | --- | --- | --- | --- |
| CC[C@H]1OC(=O)[C@H](C)[C@@H](O[C@H]2C[C@@](C)(OC)[C@@H](O)[C@H](C)O2)[C@H](C)[C@@H](O[C@@H]2O[C@H](C)C[C@H](N(C)C)[C@H]2O)[C@](C)(O)C[C@@H](C)[C@@H](N(C)C)[C@H](C)[C@@H](O)[C@H]1CO [Compound 11, (9R)-9-deoxo-9-(N,N-dimethylamino)-21-hydroxyerythromycin B] | 50 µg/mL (≈ 65.5 µM) | 6.2 µg/mL (≈ 8.13 µM) | 0.78 µg/mL (≈ 1.02 µM) | > 100 µg/mL | 6.2 µg/mL (≈ 8.13 µM) | 100 µg/mL (≈ 131 µM) | > 100 µg/mL | > 100 µg/mL | > 100 µg/mL | 50 µg/mL (≈ 65.5 µM) | > 100 µg/mL | > 100 µg/mL | > 100 µg/mL | > 100 µg/mL | > 100 µg/mL | > 100 µg/mL | > 100 µg/mL | > 100 µg/mL | 0.78 µg/mL (≈ 1.02 µM) | 12.5 µg/mL (≈ 16.4 µM) | MIC [3]: 6.2 µg/mL (≈ 8.13 µM); MIC ([5]; P. aeruginosa BMH10, BHI agar, 35-37° C., 20 to 24 hours, read-out: MIC): > 100 µg/mL; MIC ([9]; NCTC10649, 24 h): 6.2 µg/mL (≈ 8.13 µM); MIC (STR[…] EES61): 0.39 µg/mL (≈ 0.511 µM); MIC (STR[…] 508): 0.78 µg/mL (≈ 1.02 µM); MIC (STAPHYLOCOCCUS AUREUS 45; 24 h): 6.2 µg/mL (≈ 8.13 µM); MIC (M[…] ATCC 4698): 0.78 µg/mL (≈ 1.02 µM); MIC (EN[…] ATCC 8043): 1.56 µg/mL (≈ 2.04 µM); MIC ([18]; 24 h): 6.2 µg/mL (≈ 8.13 µM); MIC (ESCHERICHIA COLI SS; 24 h): 0.39 µg/mL (≈ 0.511 µM) |
| CC[C@H]1OC(=O)[C@H](C)[C@@H](O[C@H]2C[C@@](C)(OC)[C@@H](O)[C@H](C)O2)[C@H](C)[C@@H](O[C@@H]2O[C@H](C)C[C@H](N(C)C)[C@H]2O)[C@](C)(O)C[C@@H](C)[C@@H](N(C)C)[C@H](C)[C@@H](O)[C@@]12CO2 [Compound 8, (9R)-9-deoxo-9-(N,N-dimethylamino)-12,21-epoxyerythromycin A] | 25 µg/mL (≈ 32.9 µM) | 0.78 µg/mL (≈ 1.02 µM) | 0.02 µg/mL (≈ 0.0263 µM) | > 100 µg/mL | 0.39 µg/mL (≈ 0.512 µM) | 50 µg/mL (≈ 65.7 µM) | 50 µg/mL (≈ 65.7 µM) | > 100 µg/mL | 100 µg/mL (≈ 131 µM) | 6.2 µg/mL (≈ 8.15 µM) | > 100 µg/mL | > 100 µg/mL | > 100 µg/mL | 12.5 µg/mL (≈ 16.4 µM) | > 100 µg/mL | 100 µg/mL (≈ 131 µM) | > 100 µg/mL | 50 µg/mL (≈ 65.7 µM) | 0.1 µg/mL (≈ 0.131 µM) | 12.5 µg/mL (≈ 16.4 µM) | MIC ([5]; 24 h): > 100 µg/mL; MIC ([9]; NCTC10649, S. aureus NCTC 10649, BHI agar, 35-37° C., 20 to 24 hours, read-out: MIC): 0.78 µg/mL (≈ 1.02 µM); MIC (STAPHYLOCOCCUS AUREUS 45; S. aureus 45, BHI agar, 35-37° C., 20 to 24 hours, read-out: MIC): 0.78 µg/mL (≈ 1.02 µM); MIC (M[…] ATCC 4698): 0.1 µg/mL (≈ 0.131 µM); MIC (EN[…] ATCC 8043): 0.02 µg/mL (≈ 0.0263 µM); MIC ([18]; S. aureus 642A, BHI agar, 35-37° C., 20 to 24 hours, read-out: MIC): 1.56 µg/mL (≈ 2.05 µM); MIC (ESCHERICHIA COLI SS; E. coli SS, BHI agar, 35-37° C., 20 to 24 hours, read-out: MIC): 0.39 µg/mL (≈ 0.512 µM) |
